Measured values from patent US20100226885A1, “METHOD OF TREATING HEPATITIS C PATIENTS” (priority 2007, published 2010).

Columns and labels:
HCV genotype 1 = test: Example 2: Phase II study of treatment-naïve patients, plasma HCV RNA by Roche COBAS TaqMan HCV/HPS assay; format: in vivo, human; settings: addition to PegIntron/REBETOL combination therapy, 28 and 48 week regimens
Experimental: The effectiveness of a lead-in period with interferon and ribavirin combination therapy prior to the addition of an HCV protease inhibitor was further evaluated in a study of 595 treatment-naïve patients infected with HCV genotype 1. In this study, boceprevir (compound of Formula 1a) is being evaluated, compared to a control of PegIntron® (peginterferon alfa-2b) at 1.5 mcg/kg QW plus REBETOL® (ribavirin, USP) (800-1400 mg/day) for a treatment period of 48 weeks, in three treatment regimens: • P/R Lead-In +B/P/R: • PegIntron (1.5 mcg/kg QW) in combination with REBETOL (800-1400 mg/day) during a first treatment period of 4 weeks followed by adding boceprevir (800 mg TID) to the combination during a second treatment period of 24 or 44 weeks; thus, the total treatment time with PegIntron and REBETOL was 28 or 48 weeks; • B/P/R: • boceprevir (800 mg TID) in combination with PegIntron (1.5 mcg/kg QW) plus REBETOL (800-1400 mg/day) for a single treatment period of 28 or 48 weeks; and • B/P/Low-dose R: • boceprevir (800 mg TID) in combination with PegIntron (1.5 mcg/kg QW) plus low-dose REBETOL (400-1000 mg/day) for a single treatment period of 48 weeks. […]
Plasma HCV RNA levels were measured using the Roche COBAS TaqMan® HCV/HPS assay (Roche Molecular Systems, Somerville, N.J.).

Hepatitis C = settings: by week four; VX-950 alone; cited from earlier work

Compound | SVR compared to the PegIntron/REBETOL control (HCV genotype 1) | treated patients showing evidence of negative HCV status (Hepatitis C) [%]
CC(C)(C)NC(=O)N[C@H](C(=O)N1CC2C([C@H]1C(=O)NC(CC1CCC1)C(=O)C(N)=O)C2(C)C)C(C)(C)C (some centres unmarked) [boceprevir] | markedly increased SVR | –
CCC[C@H](NC(=O)[C@@H]1[C@H]2CCC[C@H]2CN1C(=O)[C@@H](NC(=O)[C@@H](NC(=O)c1cnccn1)C1CCCCC1)C(C)(C)C)C(=O)C(=O)NC1CC1 [VX-950] | – | 79
